Source: patent publication US11793818B2, “Method for treating conditions associated with hyperproliferating cells comprising combined administration of a cannabinoid receptor agonist and radiation therapy” (Theralase Technologies, Inc., priority 2018, dated 2023)

Tested on: Glioma cells
Test: Glioma cell kill (presto blue) after d9-THC pre-treatment and PDT with 14C PDC
Format: cell-based
Details: 40 μM d9-THC, no PDT
Method: Glioma cells were treated with delta9-tetrahydrocannabinol (“d9-THC”) for 24 hours prior to treatment with 14C PDC and light activated. Five concentrations of d9-THC were used (0, 5, 10, 20, 40 μM). As a significant effect was only observed with a d9-THC concentration of 40 μM, only the results obtained at this concentration are shown (see FIG. 1). After 24 hours, cells were treated with 14C PDC for 4 hours, PDT was performed using green light (20 J/cm^2) and plates were incubated overnight for presto blue on the following day. The PDT dose used was decreased to induce 10-15% cell kill in order to highlight any additive/synergistic effect of the combination that might otherwise be masked if a higher dose had been used.
Absolute cell kill values are shown with error bars representing standard deviations between wells. The hypothetical additive effect represents the hypothetical cell kill percentage had the combined effect merely been additive. Reading from left to right in FIG. 1: the first bar is the control; the second bar is d9-THC only; the third bar is light activated 14C PDC only; the fourth bar is hypothetical cell kill percentage of d9-THC combined with 14C PDC light activated; and the fifth bar is PDT (light activated 14C PDC) combined with the tested cannabinoid. PDT alone (light activated 14C PDC) induced 10% cell kill. 40 μM of d9-THC induced 10% cell kill.

CCCCCc1cc(O)c2c(c1)OC(C)(C)[C@@H]1CCC(C)=C[C@@H]21 [d9-THC, delta9-tetrahydrocannabinol]
cell kill, d9-THC only: 10%
